test system: not given; experiment: not given; settings: cited from earlier work

Compared with `c1ccoc1` [furan], `c1cocn1` [oxazole] is lower in “octanol/water log P” value: 1.34 for the first, 0.12 for the second.

Compared with `c1cscn1` [thiazole], `c1ccsc1` [thiophene] is higher in “octanol/water log P” value: 0.44 for the first, 1.81 for the second.

target: JAK2 JH2 V617F mutant (Homo sapiens (Human), UniProt O60674, V617F); experiment: not given; settings: cited from earlier work
Sequence (O60674 545-809 V617F): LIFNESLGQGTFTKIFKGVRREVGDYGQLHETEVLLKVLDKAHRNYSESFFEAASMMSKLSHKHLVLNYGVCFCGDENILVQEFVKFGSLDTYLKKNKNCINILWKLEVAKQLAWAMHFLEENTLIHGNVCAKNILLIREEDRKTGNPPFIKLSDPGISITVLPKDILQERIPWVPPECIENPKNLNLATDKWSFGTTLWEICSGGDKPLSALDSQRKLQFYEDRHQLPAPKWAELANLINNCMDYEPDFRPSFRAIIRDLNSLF

In the case of `Nc1ncnc2c1ncn2[C@@H]1O[C@H](COP(=O)(O)OP(=O)(O)OP(=O)(O)O)[C@@H](O)[C@H]1O` [ATP], the Kd is listed as 1.3 µM.

target: JAK2 JH2 (Homo sapiens (Human), UniProt O60674); experiment: Competitive fluorescence polarization (FP) assay, JAK2 JH2; settings: read-out: Binding Affinity for JAK2 JH2 (Kd) from the FP Assay; wild-type JH2, FP, pH 8.0; mean ± SEM
Sequence (O60674 536-812 W659A/W777A/F794H): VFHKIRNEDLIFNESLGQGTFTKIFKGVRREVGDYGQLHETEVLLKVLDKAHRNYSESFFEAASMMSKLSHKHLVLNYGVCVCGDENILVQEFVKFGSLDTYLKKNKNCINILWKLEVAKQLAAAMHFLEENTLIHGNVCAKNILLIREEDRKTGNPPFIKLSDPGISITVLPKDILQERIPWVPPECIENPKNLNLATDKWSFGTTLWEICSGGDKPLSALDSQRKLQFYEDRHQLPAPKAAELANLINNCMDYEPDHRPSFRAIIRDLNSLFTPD
Description: In a flat black bottom 96 well plate (Corning), the buffer (20 mM Tris-HCl pH 8.0, 150 mM NaCl, 20% Glycerol, 0.5 mM TCEP, 0.01% Tween 20) is added—200 μL to column 1 (blank), 295 μL to column 2, 150 μL to columns 3-12. […] 150 μL was transferred, using a multichannel pipette, from column 2 to 3, 3 to 4, 4 to 5, until reaching the last column to make a serial dilutions (1:2). […] Experiments were carried out by quadruplicates in three independent experiments. The data provided a typical saturation-binding curve and Kd was calculated fitting the results to the Hill equation using Prism 7.
In a flat black bottom 96 well plate (Corning), 200 μL of FP buffer were added to column 1 (blank), 150 μL to column 2, and 140 μL to columns 3-12. […] 2 μL of inhibitor in DMSO at different concentrations were added from column 4 to 12. […] Experiments were carried out by quadruplicates in three independent experiments. Data were analyzed by a least-squares non-linear fit, generated using Prism 7 in order to determine the compound's IC50. Kd values for each inhibitor are calculated using the following equation based on the IC50, Kd of the tracer (Kd^t), total (Lt) and bound (Lb) tracer, as well as total protein concentration (Pt)^13

Compared with `Nc1nc(Nc2ccc(S(N)(=O)=O)cc2)nn1Cc1c(F)cccc1F` [Compound 2, 4-((5-amino-1-(2,6-difluorobenzyl)-1H-1,2,4-triazol-3-yl)amino)benzenesulfonamide], `Nc1nc(Nc2ccc(S(N)(=O)=O)cc2)nn1C(=O)Nc1ccccc1` [Compound 4] is 3.6-fold lower in Kd: 16.7 µM for the first, 4.7 µM for the second. The second binds more tightly here.

Going from `CN(C(=O)n1nc(Nc2ccc(S(N)(=O)=O)cc2)nc1N)c1ccccc1` [Compound 5, 5-amino-N-methyl-N-phenyl-3-((4-sulfamoylphenyl)amino)-1H-1,2,4-triazole-1-carboxamide] to `Nc1nc(Nc2ccc(S(N)(=O)=O)cc2)nn1C(=O)Nc1ccccn1` [Compound 6], the Kd falls from 47.8 ± 9.2 µM to 30.5 ± 3.6 µM (1.6-fold). The second binds more tightly here.

Going from `Nc1nc(Nc2ccc(S(N)(=O)=O)cc2)nn1C(=O)Nc1cccnc1` [Compound 7, 5-amino-N-(pyridin-3-yl)-3((4-sulfamoylphenyl)amino)-1H-1,2,4-triazole-1-carboxamide] to `Nc1nc(Nc2ccc(S(N)(=O)=O)cc2)nn1C(=O)Nc1ccc(-c2nnc(C(=O)O)o2)cc1` [Compound 14, 5-(4-(5-amino-3((4-sulfamoylphenyl)amino)-1H-1,2,4-triazole-1-carboxamido)phenyl)-1,3,4-oxadiazole-2-carboxylic acid], the Kd falls from 12.3 µM to 7 ± 0.1 µM (1.8-fold). The second binds more tightly here.

Compared with `N#Cc1ccc(Nc2nc(N)n(C(=O)Nc3cccc(OCC(=O)O)c3)n2)cc1` [Compound 11, 2-(3-(5-amino-3((4-cyanophenyl)amino)-1H-1,2,4-triazole-1-carboxamido)phenoxy)acetic acid], `Nc1nc(Nc2ccc(S(N)(=O)=O)cc2)nn1C(=O)Nc1ccc(-c2ccc(C(=O)O)o2)cc1` [Compound 13, 5-(4-(5-amino-3((4-sulfamoylphenyl)amino)-1H-1,2,4-triazole-1-carboxamido)phenyl)furan-2-carboxylic acid] is 9.1-fold lower in Kd: 4 µM for the first, 0.439 ± 0.064 µM for the second. The second binds more tightly here.

target: WT JAK2 JH2 (Homo sapiens (Human), UniProt O60674); experiment: not given; settings: read-out: Binding constant with WT JAK2 JH2; cited from earlier work
Sequence (O60674 545-809): as the sequence (O60674 545-809 V617F) above, with F73V counted along it

In the case of `Nc1ncnc2c1ncn2[C@@H]1O[C@H](COP(=O)(O)OP(=O)(O)OP(=O)(O)O)[C@@H](O)[C@H]1O` [ATP], the Kd is given as 1.3 µM.
